Patent US10092028B2, “Compositions comprising cinnamaldehyde and zinc and methods of using such compositions” (NESTEC S.A., priority 2014, dated 2018)
pEC50: −log10 of the molar value.

Experiments:
[1] = target: T1, hTRPA1 expressed in CHO cells (Homo sapiens, UniProt O75762); test: in vitro activity of hTRPA1 expressed in CHO cells, intracellular calcium with a fluorescent dye; format: cell-based; details: cinnamaldehyde at 50 mM (C+), according to a dose-response curve
T1 construct: expressed in transfected cells; host or cells: CHO cells
T1 sequence (O75762 whole entry): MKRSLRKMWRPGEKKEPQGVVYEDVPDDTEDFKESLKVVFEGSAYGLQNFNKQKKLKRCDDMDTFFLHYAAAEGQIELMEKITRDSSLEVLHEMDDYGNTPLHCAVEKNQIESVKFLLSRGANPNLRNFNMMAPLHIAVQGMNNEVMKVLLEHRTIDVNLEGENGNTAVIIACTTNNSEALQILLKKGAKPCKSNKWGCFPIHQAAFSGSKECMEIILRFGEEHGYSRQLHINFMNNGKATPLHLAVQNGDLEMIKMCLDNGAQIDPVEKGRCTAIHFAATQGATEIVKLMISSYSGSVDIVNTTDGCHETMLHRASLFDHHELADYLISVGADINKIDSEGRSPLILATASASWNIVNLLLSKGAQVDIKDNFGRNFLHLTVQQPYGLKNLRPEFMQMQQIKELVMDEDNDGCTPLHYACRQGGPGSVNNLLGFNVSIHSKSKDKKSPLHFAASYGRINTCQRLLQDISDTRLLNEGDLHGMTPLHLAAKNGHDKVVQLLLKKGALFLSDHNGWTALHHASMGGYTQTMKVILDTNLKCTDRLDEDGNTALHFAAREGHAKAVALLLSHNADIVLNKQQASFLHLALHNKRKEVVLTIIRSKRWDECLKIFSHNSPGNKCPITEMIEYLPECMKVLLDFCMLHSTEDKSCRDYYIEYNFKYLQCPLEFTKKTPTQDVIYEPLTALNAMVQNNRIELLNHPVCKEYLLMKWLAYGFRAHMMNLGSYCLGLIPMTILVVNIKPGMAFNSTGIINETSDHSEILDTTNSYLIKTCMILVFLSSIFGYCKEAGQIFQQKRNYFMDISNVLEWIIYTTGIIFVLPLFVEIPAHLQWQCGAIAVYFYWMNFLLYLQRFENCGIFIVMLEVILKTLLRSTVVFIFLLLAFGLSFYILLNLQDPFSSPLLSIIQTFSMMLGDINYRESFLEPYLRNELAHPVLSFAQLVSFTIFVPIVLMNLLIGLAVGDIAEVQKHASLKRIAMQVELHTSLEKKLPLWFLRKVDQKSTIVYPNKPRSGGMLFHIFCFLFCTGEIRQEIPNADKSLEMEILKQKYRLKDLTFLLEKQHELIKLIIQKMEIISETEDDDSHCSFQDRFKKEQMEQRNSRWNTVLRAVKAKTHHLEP

[2] = energy expenditure after ingestion in human subjects; format: in vivo
Protocol: Human subjects were administered placebo, a cooling flavor, capsaicin, or cinnamaldehyde. The energy expenditure was measured over the eighty minutes following ingestion. […] The increased sympathetic activity identified by measuring the facial temperature (increased blood flow on the chin) might explain the increased energy expenditure measured by indirect calorimetry.

[3] = postprandial fat oxidation after ingestion in human subjects; format: in vivo
Protocol: The postprandial fat oxidation was measured over the 90 minutes following ingestion of the various compounds.

[4] = nose temperature after ingestion in human subjects; format: in vivo; details: fifteen minutes following ingestion, FIG. 7
Protocol: (§1) The nose temperature of the subjects was analyzed over the fifteen minutes following ingestion of the various compounds. […] The increased sympathetic activity identified by measuring the facial temperature (increased blood flow on the chin) might explain the increased energy expenditure measured by indirect calorimetry.

[5] = chin temperature after ingestion in human subjects (sympathetic activity); format: in vivo
Protocol: as §1, with “chin” for “nose”, “measured” for “analyzed”, “eighty” for “fifteen”

[6] = insulin sensitivity in mice with chronic ingestion, high fat diet; format: in vivo; details: mice chronically fed high fat diet containing 0.2 wt % cinnamaldehyde, FIG. 11
Description: The composition can thereby reduce glycemia.

[7] = target: TRPA1 (Homo sapiens, UniProt O75762); details: read-out: EC50 for activation of TRPA1; cited from earlier work
Sequence of TRPA1 (O75762 whole entry): as above

[8] = target: TRPV1 (Homo sapiens, UniProt Q8NER1); details: cited from earlier work
Sequence of TRPV1 (Q8NER1 whole entry, species assumed): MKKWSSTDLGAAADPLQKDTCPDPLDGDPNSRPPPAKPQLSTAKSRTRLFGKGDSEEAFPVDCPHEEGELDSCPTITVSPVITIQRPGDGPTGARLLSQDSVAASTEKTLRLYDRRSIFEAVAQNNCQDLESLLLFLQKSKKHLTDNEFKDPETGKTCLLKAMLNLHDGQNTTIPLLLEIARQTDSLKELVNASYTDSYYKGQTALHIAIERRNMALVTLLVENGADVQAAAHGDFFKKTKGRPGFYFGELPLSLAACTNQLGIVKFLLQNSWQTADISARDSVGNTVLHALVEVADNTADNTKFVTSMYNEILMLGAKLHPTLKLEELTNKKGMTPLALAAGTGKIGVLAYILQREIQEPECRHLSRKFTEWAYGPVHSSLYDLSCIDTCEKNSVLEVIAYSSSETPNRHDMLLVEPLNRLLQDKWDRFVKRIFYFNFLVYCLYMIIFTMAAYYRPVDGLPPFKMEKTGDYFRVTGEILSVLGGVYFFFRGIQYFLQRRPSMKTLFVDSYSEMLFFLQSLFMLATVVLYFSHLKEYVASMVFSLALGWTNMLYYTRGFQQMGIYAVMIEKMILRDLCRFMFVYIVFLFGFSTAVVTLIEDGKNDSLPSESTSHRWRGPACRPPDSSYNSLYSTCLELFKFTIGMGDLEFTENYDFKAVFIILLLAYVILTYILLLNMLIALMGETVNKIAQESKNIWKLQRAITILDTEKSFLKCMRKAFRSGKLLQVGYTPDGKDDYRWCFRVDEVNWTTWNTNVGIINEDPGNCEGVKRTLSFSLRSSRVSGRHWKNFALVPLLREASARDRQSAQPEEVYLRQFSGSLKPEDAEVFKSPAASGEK

[9] = comparative taste testing in human subjects; format: in vivo; details: 4.8 ppm capsaicin or 350 ppm cinnamaldehyde, FIG. 9
Protocol: Human subjects were administered a composition comprising 4.8 ppm capsaicin or 350 ppm cinnamaldehyde. […] 87.9% of the participants judged capsaicin intense to very intense, compared to only 20.5% for cinnamaldehyde. To achieve a similar effect on fat oxidation of capsaicin and cinnamaldehyde, the dose of capsaicin is about 1.5 times less than the maximum that can be used as a flavor (7 ppm according to Fenaroli's Handbook; Burdock, 2010), and the dose of cinnamaldehyde is about 17.5 times less than the maximum that can be used as a flavor (6191.0 ppm according to Fenaroli's Handbook; Burdock, 2010).

[10] = in vivo; cited from earlier work
[11] = at a flavoring level judged significantly less intense than capsaicin

Compound	activity of hTRPA1, positive control efficacy [1]	impact on energy expenditure compared to capsaicin [2, 11]	energy expenditure compared to placebo ([2]; eighty minutes following ingestion, time course and AUC, FIGS. 3 and 4)	postprandial fat oxidation compared to placebo ([3]; 90 minutes following ingestion, time course and AUC, FIGS. 5 and 6)	effect on fat oxidation compared to capsaicin [3, 11]	nose temperature [4]	impact on sympathetic nervous system activity compared to capsaicin [5, 11]	chin temperature relative to baseline ([5]; eighty minutes following ingestion, FIG. 8)	insulin sensitivity relative to same high fat diet without cinnamaldehyde [6]	pEC50 [7]	activation of TRPV1 [8]	participants who judged the taste intense to very intense [9]	efficient dose for increasing energy expenditure and fat oxidation [10]
O=CC=Cc1ccccc1 [cinnamaldehyde]	maximum efficacy	significantly higher impact	increased	maintained at higher levels	equivalent effect	increase nose temperatures	significantly higher impact	increases chin temperature for a prolonged time	improved insulin sensitivity	~5.00	but not TRPV1 or TRPM8		
COc1cc(CNC(=O)CCCC/C=C/C(C)C)ccc1O [capsaicin]						increase nose temperatures						87.9%	≥ 20 mg
